In patent publication US20080021086A1, “Pharmaceutical Composition for Prevention or Treatment of Lipid Metabolism Disorder” (KISSEI PHARMACEUTICAL CO., LTD., priority 2004, published 2008):

Assays:
[1] = test system: diabetic patients; details: single dose, compared to placebo; cited from earlier work
[2] = test system: Type 2 diabetic patients; assay: Clinical efficacy on lipid metabolism disorders in diabetic patients (clinical study of mitiglinide calcium hydrate tablets); assay type: in vivo, human
Protocol: The following clinical study was conducted in Type 2 diabetic patients using tablets containing 5 mg of mitiglinide calcium hydrate and tablets containing 10 mg of mitiglinide calcium hydrate.
Patients included: Type 2 diabetic patients;
Mode of dosing: oral administration of 5 to 20 mg as a single dose three times per day just before (5 minutes before) each meal;
Dosing period: 28 weeks to 52 weeks;
Major items of observation: stabilized hemoglobin A1c (HbA1c), biochemical examination of blood (total cholesterol, triglyceride, LDL-cholesterol, HDL-cholesterol, free fatty acid);
Statistical Method: in all patients with an abnormal value of each lipid at pretreatment and without any hypolipidemic agent, significance test was conducted on the average of the final evaluation against the average of the pretreatment (*: P<0.05, **: P<0.01).
Patients with 150 mg/dL or more of serum TG at pretreatment were picked out as an abnormal group, the efficacy of mitiglinide calcium hydrate was evaluated on the group.
Patients with 200 mg/dL or more of serum TC at pretreatment were picked out as an abnormal group, the efficacy of mitiglinide calcium hydrate was evaluated.
Patients with 0.86 mEq/L or more of serum free fatty acid (FFA), 120 mg/dL or more of LDL-cholesterol (LDL-C) and less than 40 mg/dL of HDL-cholesterol at pretreatment, respectively, were picked out as abnormal groups, the efficacy of mitiglinide calcium hydrate was evaluated.

[3] = test system: diabetic patient; details: single dose; cited from earlier work
[4] = after 12-week repeated administration compared to pretreatment; cited from earlier work
[5] = Example 2, person, 52 weeks vs pretreatment
[6] = Example 4, person, 40 weeks vs pretreatment
[7] = Example 5, person, 24 weeks vs pretreatment
[8] = Example 6, person, 52 weeks vs pretreatment
[9] = Example 7, person, 52 weeks vs pretreatment

For CCOc1cc(CC(=O)N[C@@H](CC(C)C)c2ccccc2N2CCCCC2)ccc1C(=O)O [repaglinide], the “effect on postprandial lipid variation” value [1] is listed as “did not show significant improving effect”.

With O.O.O=C(O)[C@H](CC(=O)N1C[C@H]2CCCC[C@H]2C1)Cc1ccccc1.[Ca] [mitiglinide calcium hydrate, (2S)-2-benzyl-3-(cis-hexa hydro-2-isoindolinylcarbonyl)propionic acid calcium dihydrate] the “FFA at the final evaluation” value ([2]; Example 2, person, 10 mg till 16th week then 20 mg, after 52-week administration, pretreatment 0.94) was 0.26 mEq/L, the “LDL-C at the final evaluation” value ([2]; Example 2, person, 10 mg till 16th week then 20 mg, after 52-week administration, pretreatment 137) was 108 mg/dL and the “TC at the final evaluation” value ([2]; Example 2, person, 10 mg till 16th week then 20 mg, after 52-week administration, pretreatment 240) was 185 mg/dL. The “change of FFA” value [2, 5] was −0.68 mEq/L, the “change of LDL-C” value [2, 5] was -29 mg/dL and the “change of TC” value [2, 5] was -55 mg/dL. The “TG at the final evaluation” value ([2]; Example 3, person, 10 mg, after 52-week administration, pretreatment 171) was 110 mg/dL, the “change of TG” value ([2]; Example 3, person, 52 weeks vs pretreatment) was -61 mg/dL and the “TG at the final evaluation” value ([2]; Example 4, person, 10 mg till 16th week then 20 mg, after 40-week administration, pretreatment 163) was 101 mg/dL. The “TC at the final evaluation” value ([2]; Example 4, person, 10 mg till 16th week then 20 mg, after 40-week administration, pretreatment 214) was 162 mg/dL, the “change of TC” value [2, 6] was -52 mg/dL and the “change of TG” value [2, 6] was -62 mg/dL. The “FFA at the final evaluation” value ([2]; Example 5, person with concomitant hyperlipidemia, 10 mg till 16th week then 20 mg, after 24-week administration, pretreatment 0.53) was 0.30 mEq/L, the “TG at the final evaluation” value ([2]; Example 5, person with concomitant hyperlipidemia, 10 mg till 16th week then 20 mg, after 24-week administration, pretreatment 213) was 145 mg/dL and the “change of FFA” value [2, 7] was −0.23 mEq/L. The “change of TG” value [2, 7] was -68 mg/dL, the “LDL-C at the final evaluation” value ([2]; Example 6, person with concomitant hyperlipidemia, 10 mg, after 52-week administration, pretreatment 149) was 134 mg/dL and the “TC at the final evaluation” value ([2]; Example 6, person with concomitant hyperlipidemia, 10 mg, after 52-week administration, pretreatment 260) was 203 mg/dL. The “change of LDL-C” value [2, 8] was -15 mg/dL, the “change of TC” value [2, 8] was -57 mg/dL and the “HDL-C at the final evaluation” value ([2]; Example 7, person, 10 mg, after 52-week administration, pretreatment 57) was 72 mg/dL. For the same compound, the “LDL-C at the final evaluation” value ([2]; Example 7, person, 10 mg, after 52-week administration, pretreatment 129) was 116 mg/dL, the “TG at the final evaluation” value ([2]; Example 7, person, 10 mg, after 52-week administration, pretreatment 170) was 100 mg/dL and the “TC at the final evaluation” value ([2]; Example 7, person, 10 mg, after 52-week administration, pretreatment 226) was 206 mg/dL. The “change of HDL-C” value [2, 9] was “+15 mg/dL”, the “change of LDL-C” value [2, 9] was -13 mg/dL and the “change of TC” value [2, 9] was -20 mg/dL. For the same compound, the “change of TG” value [2, 9] was -70 mg/dL, the “Average of TG, Final evaluation” value ([2]; all patients with 150 mg/dL or more of pretreatment TG, oral 5 to 20 mg three times per day, 28 to 52 weeks, pretreatment average 262.6, ** P<0.01 vs pretreatment) was 216.3** mg/dL and the “Average of TC, After the end of administration” value ([2]; all patients with 200 mg/dL or more of TC at pretreatment, oral 5 to 20 mg three times per day, 28 to 52 weeks, pretreatment average 231.8, * P<0.05 vs pretreatment) was 226.4* mg/dL. The “Average LDL-C, After the end of administration” value ([2]; patients with 120 mg/dL or more of LDL-C at pretreatment, pretreatment average 144.9, ** P<0.01) was 137.7** mg/dL, the “Average FFA, After the end of administration” value ([2]; patients with 0.86 mEq/L or more of FFA at pretreatment, pretreatment average 1.021, ** P<0.01) was 0.745** mEq/L and the “overall effect on blood lipids” value ([2]; patients with high blood TG, blood TC, FFA or LDL-C, or low HDL-C) was “remarkable effects to lower TG, TC, LDL-C or FFA, or increase HDL-C”. The “Average HDL-C, After the end of administration” value ([2]; patients with less than 40 mg/dL of HDL-C at pretreatment, pretreatment average 34.7, ** P<0.01) was 40.3** mg/dL.

For CC(C)[C@H]1CC[C@H](C(=O)N[C@H](Cc2ccccc2)C(=O)O)CC1 [nateglinide], the “effect on postprandial increase of triglyceride” value [3] is listed as “suppressed postprandial increase of triglyceride” and the “effect on postprandial lipid variation” value [4] is listed as “did not show a significant improvement”.
